Experimental data from patent publication US20040266732A1, “Therapeutic agents, methods, and treatments” (priority 2002, published 2004).

Assays:
Test in all cases: NCI 60 cell-line test
Assay type in all cases: cell-based, human
[1] = system: HCT-15; settings: HCT-15 (Colon Cancer)
Experimental: (§1) Methodology: The NCI conducted a test of the MT103 drug against 60 human cell lines, with a minimum of five concentrations of MT103 at 10-fold dilutions. A 48 hour continuous drug exposure was used, and a sulforhodamine B (SRB) protein assay was used to estimate cell viability and growth. The human tumor cell lines of the cancer screening panel were grown in RPMI 1640 medium containing 5% fetal bovine serum and 2 mM L-glutamine. Cells were inoculated into 96 well microtiter plates in 100 μL at plating densities ranging from 5,000 to 40,000 cells/well depending on the doubling time of individual cell lines. After cell inoculation, the microtiter plates are incubated at 37° C., 5% CO2, 95% air, and 100% relative humidity for 24 h prior to addition of experimental drugs.
(§2) After 24 h, two plates of each cell line were fixed in situ with TCA, to represent a measurement of the cell population for each cell line at the time of drug addition (Tz). MT103 was solubilized in dimethyl sulfoxide at 400-fold the desired final maximum test concentration and stored frozen prior to use. At the time of drug addition, an aliquot of frozen concentrate was thawed and diluted to twice the desired final maximum test concentration with complete medium containing 50 μg/ml gentamicin. Additional four, 10-fold or ½ log serial dilutions were made to provide a total of five drug concentrations plus control. Aliquots of 100 μl of these different drug dilutions were added to the appropriate microtiter wells already containing 100 μl of medium, resulting in the required final drug concentrations.
(§3) Following drug addition, the plates were incubated for an additional 48 h at 37° C., 5% CO2, 95% air, and 100% relative humidity. For adherent cells, the assay was terminated by the addition of cold TCA. Cells were fixed in situ by the gentle addition of 50 μl of cold 50% (w/v) TCA (final concentration, 10% TCA) and incubated for 60 minutes at 4° C. The supernatant was discarded, and the plates were washed five times with tap water and air dried. Sulforhodamine B (SRB) solution (100 μl) at 0.4% (w/v) in 1% acetic acid was added to each well, and plates were incubated for 10 minutes at room temperature. After staining, unbound dye was removed by washing five times with 1% acetic acid and the plates were air-dried. Bound stain was subsequently solubilized with 10 mM trizma base, and the absorbance was read on an automated plate reader at a wavelength of 515 nm. For suspension cells, the methodology was the same except that the assay was terminated by fixing settled cells at the bottom of the wells by gently adding 50 μl of 80% TCA (final concentration, 16% TCA). Using the seven absorbance measurements (time zero, (Tz), control growth, (C), and test growth in the presence of drug at the five concentration levels (Ti)), the percentage growth was calculated at each of the drug concentrations levels. Percentage growth inhibition was calculated as:
(§4) [(Ti-Tz)/(C-Tz)]×100 for concentrations for which Ti>/=Tz
(§5) [(Ti-Tz)/Tz]×100 for concentrations for which Ti<Tz.
(§6) Three dose response parameters were calculated for each experimental agent. Growth inhibition of 50% (GI50) was calculated from [(Ti-Tz)/(C-Tz)]×100=50, which is the drug concentration resulting in a 50% reduction in the net protein increase (as measured by SRB staining) in control cells during the drug incubation. The drug concentration resulting in total growth inhibition (TGI) was calculated from Ti=Tz. The LC50 (concentration of drug resulting in a 50% reduction in the measured protein at the end of the drug treatment as compared to that at the beginning) indicating a net loss of cells following treatment was calculated from [(Ti-Tz)/Tz]×100=−50. Values were calculated for each of these three parameters if the level of activity is reached; however, if the effect was not reached or was exceeded, the value for that parameter was expressed as greater or less than the maximum or minimum concentration tested.

[2] = system: CAKI-1; settings: CAKI-1 (Renal Cancer)
Experimental: as §1, §2, §3, §4, §5, §6

[3] = system: HT29; settings: HT29 (Colon Cancer)
Experimental: as §1, §2, §3, §4, §5, §6

[4] = system: OVCAR-5; settings: OVCAR-5 (Ovarian Cancer)
Experimental: as §1, §2, §3, §4, §5, §6

[5] = system: SR; settings: SR (Leukemia)
Experimental: as §1, §2, §3, §4, §5, §6

[6] = system: IGROV1; settings: IGROV1 (Ovarian Cancer)
Experimental: as §1, §2, §3, §4, §5, §6

[7] = system: NCI/ADR-RES; settings: NCI/ADR-RES (Breast Cancer)
Experimental: as §1, §2, §3, §4, §5, §6

[8] = system: SF-295; settings: SF-295 (CNS Cancer)
Experimental: as §1, §2, §3, §4, §5, §6

[9] = system: UACC-257; settings: UACC-257 (Melanoma)
Experimental: as §1, §2, §3, §4, §5, §6

[10] = system: SK-MEL-28; settings: SK-MEL-28 (Melanoma)
Experimental: as §1, §2, §3, §4, §5, §6

[11] = system: NCI-H23; settings: NCI-H23 (Non-Small Cell Lung Cancer)
Experimental: as §1, §2, §3, §4, §5, §6

[12] = system: A498; settings: A498 (Renal Cancer)
Experimental: as §1, §2, §3, §4, §5, §6

[13] = system: M14; settings: M14 (Melanoma)
Experimental: as §1, §2, §3, §4, §5, §6

[14] = system: BT-549; settings: BT-549 (Breast Cancer)
Experimental: as §1, §2, §3, §4, §5, §6

[15] = system: LOX IMVI; settings: LOX IMVI (Melanoma)
Experimental: as §1, §2, §3, §4, §5, §6

[16] = read-out: LC50 (the source's name)

CC1(C)C2CC[C@@]1(CS(=O)(=O)N(C1CCCCC1)C1CCCCC1)C(O)C2 (some centres unmarked) [MT103]
TGI [1]: >1.00E−04
IC50 ([1]; read-out: G150): 25.7 µM
CC50 [1, 16]: > 100 µM
TGI [2]: 9.05E−05
IC50 ([2]; read-out: G150): 23.5 µM
CC50 [2, 16]: > 100 µM
TGI [3]: >1.00E−04
IC50 ([3]; read-out: G150): 23.5 µM
CC50 [3, 16]: > 100 µM
TGI [4]: 5.70E−05
IC50 ([4]; read-out: G150): 23.7 µM
CC50 [4, 16]: > 100 µM
TGI [5]: >1.00E−04
IC50 ([5]; read-out: G150): 23.8 µM
CC50 [5, 16]: > 100 µM
TGI [6]: >1.00E−04
IC50 ([6]; read-out: G150): 34.8 µM
CC50 [6, 16]: > 100 µM
TGI [7]: >1.00E−04
IC50 ([7]; read-out: G150): 34.9 µM
CC50 [7, 16]: > 100 µM
TGI [8]: >1.00E−04
IC50 ([8]; read-out: G150): 22.6 µM
CC50 [8, 16]: > 100 µM
TGI [9]: 9.53E−05
IC50 ([9]; read-out: G150): 28.5 µM
CC50 [9, 16]: > 100 µM
TGI [10]: >1.00E−04
IC50 ([10]; read-out: G150): 50.7 µM
CC50 [10, 16]: > 100 µM
IC50 ([11]; read-out: G150): 26.9 µM
CC50 [11, 16]: > 100 µM
TGI [12]: 9.07E−05
IC50 ([12]; read-out: G150): 30.4 µM
CC50 [12, 16]: > 100 µM
TGI [13]: >1.00E−04
IC50 ([13]; read-out: G150): 67.8 µM
CC50 [13, 16]: > 100 µM
TGI [14]: >1.00E−04
IC50 ([14]; read-out: G150): 59.3 µM
CC50 [14, 16]: > 100 µM
TGI [15]: 3.95E−05
IC50 ([15]; read-out: G150): 19 µM
CC50 [15, 16]: 82.3 µM
